Laboratory results: patent US20110190129A1, “IMPROVEMENTS IN OR RELATING TO ORGANIC COMPOUNDS” (SYNGENTA LIMITED, priority 2007, published 2011)
Where two headings read alike, the source gives them in different places. Marks after values point to notes of the source that are not given here.

Assay: Solubility of pesticide samples in solvents (equilibration, 25 C, HPLC analysis)
Type: physicochemical
Procedure: The following general method is used to measure the solubility of pesticide samples in solvents. A 2 ml aliquot of solvent is added to a 5 ml volume glass vial. Pesticide is added such that half of the volume of the liquid is filled. The sample is shaken for one minute and left to stand for 24 hours. Samples which have dissolved are refilled with more of the pesticide, shaken and left for a further 24 hours. This process is continued until the samples have equilibrated for three days without the need for further pesticide addition. The samples are then placed in a temperature controlled oven at 25 C for one week prior to analysis by high pressure liquid chromatography. All samples are filtered and centrifuged prior to chromatographic analysis.

[1] = solvent Solvesso 200ND, 25 C, Table 1
[2] = solvent acetophenone, 25 C, Table 1
[3] = solvent dimethyl lactamide, 25 C, Table 1
[4] = comparison in words, dimethyl lactamide versus the other two solvents

For `Fc1ccc([C@]2(Cn3cncn3)O[C@H]2c2ccccc2Cl)cc1` (racemic) [Epoxiconazole, epoxiconazole], which “Solubility in Solvesso 200ND” value (1 week) is on record?
The value was 2.5 % w/w.

What about the “Solubility in dimethyl lactamide” value (1 week) of the same compound?
The value was 8.0 % w/w.

With `CNC(=O)c1cc(Cl)cc(C)c1NC(=O)c1cc(Br)nn1-c1ncccc1Cl` [Rynaxypry] as the compound, how does the “Solubility in Solvesso 200ND” value [1] read?
Its value is 0.06 % w/w.

And the Solubility in acetophenone [2]?
The Solubility in acetophenone was 0.75 % w/w.

And the “Solubility in dimethyl lactamide” value [3]?
Its value is 2.8 % w/w.

With `CN1COCN(Cc2cnc(Cl)s2)/C1=N\[N+](=O)[O-]` [Thiamethoxam, thiamethoxam] as the compound, how does the “Solubility in dimethyl lactamide compared with Solvesso 200ND or acetophenone” value [4] read?
Its value is “better”.

What about the “Solubility in Solvesso 200ND” value [1] of the same compound?
The value was 0.2 % w/w.

And the Solubility in acetophenone [2]?
The Solubility in acetophenone was 5.0 % w/w.

What about the “Solubility in dimethyl lactamide” value [3] of the same compound?
Its value is 9.0 % w/w.

Which “Solubility in dimethyl lactamide compared with Solvesso 200ND or acetophenone” value [4] does the source give for `N#Cc1c[nH]cc1-c1cccc2c1OC(F)(F)O2` [Fludioxynil] here?
The value was “better”.

And the “Solubility in Solvesso 200ND” value [1]?
The value was 0.3 % w/w.

And the Solubility in acetophenone [2]?
The Solubility in acetophenone was 8.5 % w/w.

And the “Solubility in dimethyl lactamide” value [3]?
The value was 30.1 % w/w.

Which “Solubility in Solvesso 200ND” value does the source give for `CCN(CC)C(=O)C(C)Oc1cccc2ccccc12` (stereo not drawn) [Napropamide, napropamide] here?
Its value is 20.7.

What about the Solubility in acetophenone of the same compound?
The Solubility in acetophenone was 27.6 % w/w.

And the Solubility in dimethyl lactamide?
Its Solubility in dimethyl lactamide is 19.2 % w/w.

What about the “Solubility in dimethyl lactamide compared with Solvesso 200ND or acetophenone” value of the same compound?
Its value is “lower”.

With `CCCCC(O)(Cn1cncn1)c1ccc(Cl)cc1Cl` (stereo not drawn) [Hexaconazole, hexaconazole] as the compound, how does the “Solubility in dimethyl lactamide compared with Solvesso 200ND or acetophenone” value read?
The value was “better”.

What about the “Solubility in Solvesso 200ND” value (1 week) of the same compound?
Its value is 4.4 % w/w.

What about the Solubility in acetophenone (1 week) of the same compound?
The Solubility in acetophenone was 11.7 % w/w.

What about the “Solubility in dimethyl lactamide” value (1 week) of the same compound?
Its value is 18 % w/w.

Which “Solubility in Solvesso 200ND” value [1] does the source give for `CN(C)C(=O)Nc1ccc(Cl)c(Cl)c1` [Diuron] here?
The value was <0.2* % w/w.

What about the Solubility in acetophenone [2] of the same compound?
Its Solubility in acetophenone is 4.8 % w/w.

And the “Solubility in dimethyl lactamide” value [3]?
The value was 11.0 % w/w.

For `CC(C)C1C2CCC1c1c(NC(=O)c3cn(C)nc3C(F)F)cccc12` (stereo not drawn) [Compound of FIG. 2, 3-difluoromethyl-1-methyl-1H-pyrazole-4-carboxylic acid(9-isopropyl-1,2,3,4-tetrahydro-1,4-methano-naphthalen-5-yl)-amide], which “Solubility in dimethyl lactamide compared with Solvesso 200ND or acetophenone” value [4] is on record?
The value was “better”.

And the “Solubility in Solvesso 200ND” value [1]?
Its value is 5.6 % w/w.

What about the Solubility in acetophenone [2] of the same compound?
The Solubility in acetophenone was 14.1 % w/w.

What about the “Solubility in dimethyl lactamide” value [3] of the same compound?
Its value is 32.1 % w/w.

For `N#Cc1c(Cl)c(Cl)c(Cl)c(C#N)c1Cl` [Chlorothalonil, chlorothalonil], which “Solubility in dimethyl lactamide compared with Solvesso 200ND or acetophenone” value [4] is on record?
The value was “lower”.

With `CCO/N=C(\CC)C1=C(O)CC(c2c(C)cc(C)cc2C)CC1=O` (stereo not drawn) [Tralkoxydim, tralkoxydim] as the compound, how does the Solubility in acetophenone read?
Its Solubility in acetophenone is 12.7 % w/w.

And the Solubility in dimethyl lactamide?
Its Solubility in dimethyl lactamide is 3.2 % w/w.

And the “Solubility in dimethyl lactamide compared with Solvesso 200ND or acetophenone” value?
The value was “lower”.

Which “Solubility in dimethyl lactamide compared with Solvesso 200ND or acetophenone” value does the source give for `CSc1nc(NC(C)C)nc(NC(C)C)n1` [Prometryn, prometryn] here?
The value was “better”.

And the “Solubility in Solvesso 200ND” value (1 week)?
The value was 12 % w/w.

And the Solubility in acetophenone (1 week)?
The Solubility in acetophenone was 19 % w/w.

And the “Solubility in dimethyl lactamide” value (1 week)?
Its value is 43 % w/w.

What does the source list for `CCNc1nc(NC(C)C)nc(SC)n1` [Ametryn]?
Solubility in Solvesso 200ND (1 week): 29.3 % w/w; Solubility in acetophenone (1 week): 47.4 % w/w; Solubility in dimethyl lactamide (1 week): 53.0 % w/w
